The values below come from patent US10023570B2 (Array BioPharma, Inc., priority 2015, dated 2018).

Where a name gives a salt, the structure may show the parent alone. Bounds are passed on as bounds.

The target in this assay is human KDR protein in HEK-293 cells (Homo sapiens (Human), UniProt P35968). Put plainly: KDR Cell Assay (phospho-KDR in HEK-293 cells expressing inducible KDR). Format: cell-based. Particulars: pKDR Cell HEK 10% FBS IC50, HEK-293 cells expressing inducible KDR, VEGF stimulated. In short, it runs like this:
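HEK-293 cells with inducible human KDR were treated with compound for 1 h in DMEM (0.25% DMSO final), then lysed. Phospho-KDR was quantified by Meso Scale immunoassay, expressed as percent of control, and IC50 taken where a 4-parameter logistic fit crossed 50 POC.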

Chain of human KDR protein in HEK-293 cells (P35968 20-1356): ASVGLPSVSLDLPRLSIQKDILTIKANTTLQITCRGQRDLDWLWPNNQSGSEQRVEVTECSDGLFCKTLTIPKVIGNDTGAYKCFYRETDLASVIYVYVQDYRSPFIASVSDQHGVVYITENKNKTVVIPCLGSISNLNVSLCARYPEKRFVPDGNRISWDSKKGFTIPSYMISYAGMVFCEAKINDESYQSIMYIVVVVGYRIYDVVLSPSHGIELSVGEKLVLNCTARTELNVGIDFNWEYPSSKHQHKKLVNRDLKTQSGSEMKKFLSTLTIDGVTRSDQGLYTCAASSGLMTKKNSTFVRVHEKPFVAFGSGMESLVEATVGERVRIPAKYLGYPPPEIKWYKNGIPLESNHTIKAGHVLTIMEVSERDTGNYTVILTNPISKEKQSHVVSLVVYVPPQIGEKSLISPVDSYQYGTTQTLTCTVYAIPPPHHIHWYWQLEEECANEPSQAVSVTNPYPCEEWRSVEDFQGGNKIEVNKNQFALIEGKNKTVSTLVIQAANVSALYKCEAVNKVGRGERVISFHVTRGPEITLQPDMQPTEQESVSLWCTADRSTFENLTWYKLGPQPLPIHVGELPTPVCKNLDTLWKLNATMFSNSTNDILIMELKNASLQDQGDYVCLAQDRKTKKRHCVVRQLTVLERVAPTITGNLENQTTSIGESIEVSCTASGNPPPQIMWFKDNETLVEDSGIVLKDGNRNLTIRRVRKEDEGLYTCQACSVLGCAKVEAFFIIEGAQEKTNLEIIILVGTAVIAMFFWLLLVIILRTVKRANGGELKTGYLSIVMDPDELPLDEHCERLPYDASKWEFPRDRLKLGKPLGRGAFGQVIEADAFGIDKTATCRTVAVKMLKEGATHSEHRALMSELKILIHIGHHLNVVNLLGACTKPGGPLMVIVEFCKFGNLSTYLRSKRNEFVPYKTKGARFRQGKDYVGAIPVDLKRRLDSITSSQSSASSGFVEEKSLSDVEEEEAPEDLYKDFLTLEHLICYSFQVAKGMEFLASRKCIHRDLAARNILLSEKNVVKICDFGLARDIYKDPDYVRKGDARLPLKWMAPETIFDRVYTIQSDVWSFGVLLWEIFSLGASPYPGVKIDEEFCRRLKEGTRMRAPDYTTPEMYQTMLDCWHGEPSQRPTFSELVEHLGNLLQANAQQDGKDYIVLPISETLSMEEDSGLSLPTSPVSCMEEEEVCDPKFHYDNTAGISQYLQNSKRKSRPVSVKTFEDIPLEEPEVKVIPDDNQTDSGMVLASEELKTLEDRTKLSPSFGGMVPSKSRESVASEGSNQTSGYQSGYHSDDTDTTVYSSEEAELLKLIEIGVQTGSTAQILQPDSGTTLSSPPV

Usually IC50 stands for the concentration that inhibits the measured activity by half. Regarding `CO[C@H]1C[C@H](NC(=O)C2CCN(c3ccc(-c4cc(-c5cnn(C)c5)cn5ncc(C#N)c45)cn3)CC2)C1` [Example 240, 1-(5-(3-cyano-6-(1-methyl-1H-pyrazol-4-yl)pyrazolo[1,5-a]pyridin-4-yl)pyridin-2-yl)-N-((1r,3r)-3-methoxycyclobutyl) piperidine-4-carboxamide], the midpoint of inhibition (10% FBS), the IC50, lay at 0.897 µM.

Turning to `CCN(CC)C(=O)N1CC2(CCN(c3ccc(-c4cc(-c5cnn(C)c5)cn5ncc(C#N)c45)cn3)CC2)C1` [Example 502, 7-(5-(3-cyano-6-(1-methyl-1H-pyrazol-4-yl)pyrazolo[1,5-a]pyridin-4-yl)pyridin-2-yl)-N,N-diethyl-2,7-diazaspiro[3.5]nonane-2-carboxamide], the IC50 is 0.437 µM.

Where the note is “10% FBS”, `CCCc1onc(C)c1C(=O)N1CCN(c2ccc(-c3cc(-c4cnn(C)c4)cn4ncc(C#N)c34)cn2)CC1` [Example 367, 4-yl)-4-(6-(4-(3-methyl-5-6-(1-methyl-1H-pyrazol-propylisoxazole-4-carbonyl)piperazin-1-yl)pyridin-3-yl)pyrazolo[1,5-a]pyridine-3-carbonitrile 2,2,2-trifluoroacetate] registered an IC50 of 0.355 µM.

The molecule `Cn1cc(-c2cc(-c3ccc(N4CCN(C(=O)c5cc(C6CC6)[nH]n5)CC4)nc3)c3c(C#N)cnn3c2)cn1` [Example 370, 4-(6-(4-(5-cyclopropyl-1H-pyrazole-3-carbonyl)piperazin-1-yl)pyridin-3-yl)-6-(1-methyl-1H-pyrazol-4-yl)pyrazolo[1,5-a]pyridine-3-carbonitrile bis(2,2,2-trifluoroacetate)] came in with an IC50 (10% FBS) of 0.0298 µM.

For the molecule `Cn1cc(-c2cc(-c3ccc(N4CCN(C(=O)CC(C)(C)O)C5(CC5)C4)nc3)c3c(C#N)cnn3c2)cn1` [Example 168, 4-(6-(4-(3-hydroxy-3-methylbutanoyl)-4,7-diazaspiro[2.5]octan-7-yl)pyridin-3-yl)-6-(1-methyl-1H-pyrazol-4-yl)pyrazolo[1,5-a]pyridine-3-carbonitrile], half-maximal inhibition (10% FBS) (IC50) was put at 1.09 µM.

The molecule `Cn1cc(-c2cc(-c3ccc(N4CCN(C(=O)Cc5ccccc5)CC4)nc3)c3c(C#N)cnn3c2)cn1` [Example 78, 6-(1-methyl-1H-pyrazol-4-yl)-4-(6-(4-(2-phenylacetyl)piperazin-1-yl)pyridin-3-yl)pyrazolo[1,5-a]pyridine-3-carbonitrile] had an IC50 (10% FBS) of 0.0806 µM.

On to `COc1cncc(CN2CCN(c3ccc(-c4cc(-c5cnn(C)c5)cn5ncc(C#N)c45)cn3)CC2)c1` [Example 442, 4-(6-(4-((5-methoxypyridin-3-yl)methyl)piperazin-1-yl)pyridine-3-yl)-6-(1-methyl-1H-pyrazol-4-yl)pyrazolo[1,5-a]pyridine-3-carbonitrile], for which the IC50 came out at 1.67 µM.

In turn, `Cn1ccc(-c2cc(-c3ccc(N4CCN(Cc5ccccn5)CC4)nc3)c3c(C#N)cnn3c2)n1` [Example 588, 6-(1-methyl-1H-pyrazol-3-yl)-4-(6-(4-(pyridine-2-ylmethyl)piperazin-1-yl)pyridin-3-yl)pyrazolo[1,5-a]pyridine-3-carbonitrile] came in with an IC50 of at least 5 µM.

Molecule `Cn1cc(-c2cc(-c3ccc(N4CCN(Cc5ccc(F)cn5)CC4)nc3)c3c(C#N)cnn3c2)cn1` [Example 462, 4-(6-(4-((5-fluoropyridin-2-yl)methyl)piperazin-1-yl)pyridin-3-yl)-6-(1-methyl-1H-pyrazol-4-yl)pyrazolo[1,5-a]pyridine-3-carbonitrile] gave an IC50 of 0.804 µM.

Take `Cn1cc(-c2cc(-c3ccc(N4CCN(C(=O)[C@H](O)c5ccccc5)CC4)nc3)c3c(C#N)cnn3c2)cn1` [Example 82, (R)-4-(6-(4-(2-hydroxy-2-phenylacetyl)piperazin-1-yl)pyridin-3-yl)-6-(1-methyl-1H-pyrazol-4-yl)pyrazolo[1,5-a]pyridine-3-carbonitrile]: the IC50 (10% FBS) amounted to 0.0912 µM.

Molecule `Cn1cc(-c2cc(-c3ccc(N4CCC5(CCNCC5)CC4)nc3)c3c(C#N)cnn3c2)cn1` [Example 539, 4-(6-(3,9-diazaspiro[5.5]undecan-3-yl)pyridin-3-yl)-6-(1-methyl-1H-pyrazol-4-yl)pyrazolo[1,5-a]pyridine-3-carbonitrile dihydrochloride] registered an IC50 of 1.64 µM.
